Reference: US4503044A, “Antibiotic LL-D05139 β” (American Cyanamid Company, priority 1983, dated 1985)
Values after ≈ are worked out from the molar mass of the structure shown. Where two headings read alike, the source gives them in different places.

How the values were obtained:
Candida albicans = assay: In vitro antibacterial activity, agar dilution; format: cell-based; conditions: 18 h, 35° C., read-out: Minimal Inhibitory Concentration
Description: (§1) This antibacterial agent is active in vitro against gram-positive and gram-negative bacteria when tested by the standard agar dilution procedure with Mueller-Hinton agar, and an inoculum of each test organism of approximately 10^4 colony-forming units delivered by a Steers replicating device. The minimal inhibitory concentration (mcg/ml) was defined as the lowest concentration of antibiotic LL-D05139β that inhibited visible growth after 18 hours incubation at 35° C.

Salmonella sp. = assay: In vitro antibacterial activity, agar dilution; format: cell-based; conditions: Salmonella sp. QHC-77-3; Mueller-Hinton agar, 18 hours, 35° C.; read-out: Minimal Inhibitory Concentration
Description: as §1

Serratia sp. = assay: In vitro antibacterial activity, agar dilution; format: cell-based; conditions: Serratia sp. TU1-78-15; Mueller-Hinton agar, 18 hours, 35° C.; read-out: Minimal Inhibitory Concentration
Description: as §1

[1] = tested on: Acinetobacter calcoaceticus; assay: In vitro antibacterial activity, agar dilution; format: cell-based; conditions: 18 h, 35° C., read-out: Minimal Inhibitory Concentration
Description: as §1

Escherichia coli = assay: In vitro antibacterial activity, agar dilution; format: cell-based; conditions: 35° C., read-out: Minimal Inhibitory Concentration
Description: as §1

Enterobacter aerogenes = assay: In vitro antibacterial activity, agar dilution; format: cell-based; conditions: Klebsiella aerogenes; Enterobacter aerogenes Stfd-79-14; Mueller-Hinton agar, 18 hours, 35° C.; read-out: Minimal Inhibitory Concentration
Description: as §1

Serratia marcescens = assay: In vitro antibacterial activity, agar dilution; format: cell-based; conditions: Serratia marcescens QHC-77-2; Mueller-Hinton agar, 18 hours, 35° C.; read-out: Minimal Inhibitory Concentration
Description: as §1

Klebsiella pneumoniae = assay: In vitro antibacterial activity, agar dilution; format: cell-based; conditions: 18 h, 35° C., read-out: Minimal Inhibitory Concentration
Description: as §1

Proteus rettgeri = assay: In vitro antibacterial activity, agar dilution; format: cell-based; conditions: Providencia rettgeri; Proteus rettgeri N-76-1; Mueller-Hinton agar, 18 hours, 35° C.; read-out: Minimal Inhibitory Concentration
Description: as §1

Micrococcus luteus = assay: In vitro antibacterial activity, agar dilution; format: cell-based; conditions: Micrococcus luteus PCI-1001; Mueller-Hinton agar, 18 hours, 35° C.; read-out: Minimal Inhibitory Concentration
Description: as §1

Enterococcus sp. = assay: In vitro antibacterial activity, agar dilution; format: cell-based; conditions: Mueller-Hinton agar, 18 hours, 35° C.
Description: as §1

Providencia stuarti = assay: In vitro antibacterial activity, agar dilution; format: cell-based; conditions: Mueller-Hinton agar, 18 hours, 35° C.
Description: as §1

Staphylococcus aureus = assay: In vitro antibacterial activity, agar dilution; format: cell-based; conditions: Mueller-Hinton agar, 18 hours, 35° C.; for MIC: read-out: Minimal Inhibitory Concentration
Description: as §1

Bacillus subtilis = assay: In vitro antibacterial activity, agar dilution; format: cell-based; conditions: ATCC6633; Bacillus subtilis ATCC 6633; Mueller-Hinton agar, 18 hours, 35° C.; read-out: Minimal Inhibitory Concentration
Description: as §1

Enterobacter cloacae = assay: In vitro antibacterial activity, agar dilution; format: cell-based; conditions: Enterobacter cloacae K-79-16; Mueller-Hinton agar, 18 hours, 35° C.; read-out: Minimal Inhibitory Concentration
Description: as §1

Pseudomonas aeruginosa = assay: In vitro antibacterial activity, agar dilution; format: cell-based; conditions: 35° C., read-out: Minimal Inhibitory Concentration
Description: as §1

Pasteurella multocida = assay: In vitro antibacterial activity, agar dilution; format: cell-based; conditions: Pasteurella multocida LL #117; Mueller-Hinton agar, 18 hours, 35° C.; read-out: Minimal Inhibitory Concentration
Description: as §1

Proteus morganii = assay: In vitro antibacterial activity, agar dilution; format: cell-based; conditions: Morganella morganii; Proteus morganii K-79-25; Mueller-Hinton agar, 18 hours, 35° C.; read-out: Minimal Inhibitory Concentration
Description: as §1

[2] = tested on: lymphocytic leukemia P388; assay: Lymphocytic Leukemia P388 Test; format: in vivo; conditions: DBA/2 mice, efficacy criterion ≥125%
Description: The animals used were DBA/2 mice, all of one sex, weighing a minimum of 17 g and all within a 3 g weight range. There were three animals per test group. The tumor transplant was by intraperitoneal injection of 0.1 ml of dilute ascitic fluid containing 10^6 cells of lymphocytic leukemia P388. LL-D05139β was administered intraperitoneally on days 1, 5 and 9 (relative to tumor inoculation) at various doses. The animals were weighed and survivors recorded on a regular basis for 30 days. The ratio of survival time for treated (T)/control (C) animals was calculated. The positive control compound was 5-fluorouracil, given as a 60 mg/kg injection. The criterion for efficacy is T/C×100≥125%.

[3] = tested on: human colon carcinoma (CX-1); assay: Human tumor clonogenic assay, colon carcinoma; format: cell-based
Description: (§2) This test was performed essentially by the method of A. Hamburger and S. Salmon, Primary bioassay of humor tumor stem cells., Science, 197: 461-463 (1977). Human colon carcinoma (CX-1) and human lung carcinoma (LX-1) tumors were obtained from the National Cancer Institute and propagated in athymic Balb/c mice. Freshly removed tumors were dispersed with trypsin 0.25% and 5×10^4 lung carcinoma cells or 1×10^5 colon carcinoma cells in soft (0.3%) agarose medium containing 0.1 ml of test drug were plated onto a solidified (0.5%) agarose base medium in 35 mm grided dishes. Cultures were incubated at 37° C. in a humidified 5% carbon dioxide in air atmosphere. Colonies were counted after 10-11 days. A compound is considered active if the treated/control (T/C) value is ≤30%, representing a 70% cell kill.

[4] = tested on: human lung carcinoma (LX-1); assay: Human tumor clonogenic assay, lung carcinoma; format: cell-based; conditions: for T/C / Av. No. of Colonies/Culture: Lung Carcinoma; for T/C: active if T/C ≤30%; for Av. No. of Colonies/Culture: colonies counted after 10-11 days, control 590
Description: as §2

[5] = Stability in solution as a function of pH; format: physicochemical

C[C@H](N)C(=O)N[C@@H](COC(=O)C=[N+]=[N-])C(=O)O [LL-D05139β, N-L-alanyl-L-serine diazoacetate]
MIC (Candida albicans; Candida albicans LL #32, Mueller-Hinton agar): 64 µg/mL (≈ 262 µM)
MIC (Candida albicans; Candida albicans LL #54, Mueller-Hinton agar): 128 µg/mL (≈ 524 µM)
MIC (Salmonella sp.): 4 µg/mL (≈ 16.4 µM)
MIC (Serratia sp.): 64 µg/mL (≈ 262 µM)
MIC ([1]; Acinetobacter calcoaceticus K-77-1, Mueller-Hinton agar): 128 µg/mL (≈ 524 µM)
MIC ([1]; Acinetobacter calcoaceticus Stfd-79-17, Mueller-Hinton agar): 512 µg/mL (≈ 2100 µM)
MIC (Escherichia coli; 18 h, Escherichia coli #31, Mueller-Hinton agar): 4 µg/mL (≈ 16.4 µM)
MIC (Escherichia coli; 18 h, Escherichia coli Stfd-79-20, Mueller-Hinton agar): 8 µg/mL (≈ 32.8 µM)
MIC (Escherichia coli; ATCC25922, 18 h, Escherichia coli ATCC 25922, Mueller-Hinton agar): 8 µg/mL (≈ 32.8 µM)
MIC (Enterobacter aerogenes): 128 µg/mL (≈ 524 µM)
MIC (Serratia marcescens): 32 µg/mL (≈ 131 µM)
MIC (Klebsiella pneumoniae; Klebsiella pneumoniae AD, Mueller-Hinton agar): 4 µg/mL (≈ 16.4 µM)
MIC (Klebsiella pneumoniae; Klebsiella pneumoniae SSC-78-1, Mueller-Hinton agar): 128 µg/mL (≈ 524 µM)
MIC (Klebsiella pneumoniae; Klebsiella pneumoniae Stfd-79-6, Mueller-Hinton agar): 128 µg/mL (≈ 524 µM)
MIC (Proteus rettgeri): 16 µg/mL (≈ 65.5 µM)
MIC (Micrococcus luteus): 4 µg/mL (≈ 16.4 µM)
MIC (Enterococcus sp.; Enterococcus sp. OSU-75-1, read-out: Minimal Inhibitory Concentration): 64 µg/mL (≈ 262 µM)
Minimal Inhibitory Concentration (Enterococcus sp.; Enterococcus sp. SM-77-15): 64 µg/mL
Minimal Inhibitory Concentration (Providencia stuarti; Providencia stuarti K-81-29): 64 µg/mL
MIC (Providencia stuarti; Providencia stuarti SSC-80-78, read-out: Minimal Inhibitory Concentration): 64 µg/mL (≈ 262 µM)
MIC (Staphylococcus aureus; ATCC25923, Staphylococcus aureus ATCC 25923): 16 µg/mL (≈ 65.5 µM)
Minimal Inhibitory Concentration (Staphylococcus aureus; Staphylococcus aureus FU-79-2): 16 µg/mL
MIC (Staphylococcus aureus; Staphylococcus aureus SSC-79-18): 16 µg/mL (≈ 65.5 µM)
MIC (Bacillus subtilis): 16 µg/mL (≈ 65.5 µM)
MIC (Enterobacter cloacae): 128 µg/mL (≈ 524 µM)
MIC (Pseudomonas aeruginosa; 18 h, Pseudomonas aeruginosa 12-4-4, Mueller-Hinton agar): 128 µg/mL (≈ 524 µM)
MIC (Pseudomonas aeruginosa; 18 h, Pseudomonas aeruginosa SSC-78-13, Mueller-Hinton agar): 512 µg/mL (≈ 2100 µM)
MIC (Pseudomonas aeruginosa; ATCC27853, 18 h, Pseudomonas aeruginosa ATCC 27853, Mueller-Hinton agar): 128 µg/mL (≈ 524 µM)
MIC (Pasteurella multocida): 64 µg/mL (≈ 262 µM)
MIC (Proteus morganii): 64 µg/mL (≈ 262 µM)
T/C × 100 (survival time treated/control) ([2]; 25 mg/kg intraperitoneally on days 1, 5 and 9): 140%
T/C × 100 (survival time treated/control) ([2]; 50 mg/kg intraperitoneally on days 1, 5 and 9): 150%
T/C × 100 (survival time treated/control) ([2]; 200 mg/kg intraperitoneally on days 1, 5 and 9): 140%
T/C ([3]; Colon Carcinoma, concentration 2 mgc/ml, active if T/C ≤30%): 16.0%
Av. No. of Colonies/Culture ([3]; Colon Carcinoma, concentration 2 mgc/ml, colonies counted after 10-11 days, control 420): 67
activity in human tumor clonogenic (stem cell) assay ([3]; colon (CX-1) carcinoma, at 2.0 mcg/ml and higher doses): active
T/C ([4]; concentration 2 mgc/ml): 23.2%
Av. No. of Colonies/Culture ([4]; concentration 2 mgc/ml): 137
T/C ([4]; concentration 20 mgc/ml): 17.8%
Av. No. of Colonies/Culture ([4]; concentration 20 mgc/ml): 105
T/C ([4]; concentration 200 mgc/ml): 13.0%
Av. No. of Colonies/Culture ([4]; concentration 200 mgc/ml): 78
activity in human tumor clonogenic (stem cell) assay ([4]; human lung (LX-1) carcinoma, at 2.0 mcg/ml and higher doses): active
stability in acid ([5]; acid, solutions kept between pH 7 and pH 9.5 during isolation): poor stability
stability ([5]; below pH 5.0): Decomposes rapidly
stability ([5]; weakly basic solutions): stable
